Data on two compounds can be found in patent publication US20040204457A1, “Use of (+)-alpha-(2,3-dimethoxyphenyl)-1-[2-(4-fluorophenyl)ethyl]-4- piperidinemethanol or its prodrug in the treatment of symptoms of dementia and dopamine induced psychosis” (Aventis Pharmaceuticals Inc., priority 2000, published 2004).

One assay has as its system social memory. In words: social memory test in mice (duration of social interaction, baseline vs retest). It is filed as in vivo. The settings on record: 0.1 and 1 mg/kg.
The test system of assay [1] is scopolamine-stimulated locomotion. Nature of the assay: scopolamine-stimulated locomotion in rats (60 min activity counts). The assay is classed as in vivo, rat. The settings on record: for antagonism of scopolamine-stimulated locomotion: 0.03-1 mg/kg. As for the experimental part: Cholinergic deficiency states include various neurodegenerative diseases such as Alzheimer's disease, Dementia with Lewy Bodies, Charles Bonnet Syndrome, delirium and Parkinson's disease. Experimental Procedure. All procedures were conducted in normal white light conditions. Rats (1 per box) were first acclimated to test boxes (45×22×20 cm; clear polycarbonate with a plastic top) for 90 minutes. […] Testing commenced immediately. […] Each interruption of a photoelectric light beam was recorded as a single activity count by a microprocessor-based control system. Testing took place between 10:00 a.m. and 5:00 p.m., with all groups counterbalanced for time of testing. The experimenter was blind to treatment group during the experiment.

Method for social memory: Male CD-1 mice (30-35 grams) were first acclimated to the test room for approximately 1 hour. […] For the baseline test, unfamiliar pairs of mice were placed into a test chamber (plexiglas mouse cage with sawdust bedding). The duration of social interaction of the two mice (sniffing, anogenital exploration, nosing, grooming, licking, pawing, playing copulatory attempts) was observed and recorded for a period of five minutes and was registered cumulatively as total seconds of contact. Twenty-four hours later, the animals were given a retest without any drug treatment. At the retest, the now familiar partners from the baseline test were placed into the test chamber for a second confrontation and the duration of social interaction was again measured. Social memory was defined as a significant decrease in duration of social contact from baseline to retest. Testing took place in normal white light conditions between the hours of 8:30 am and 3:00 pm. The experimenter was blind to the treatment group until the completion of the experiment. The results represent combined data (n=36 per group total) from two studies. Data were analyzed using the Mann-Whitney test.

As to `COc1cccc([C@H](O)C2CCN(CCc3ccc(F)cc3)CC2)c1OC` [M100907, (+)-isomer of α-(2,3-dimethoxyphenyl)-1-[2-(4-fluorophenyl)ethyl]-4-piperidinemethanol], the “effect on social memory” value in the assay on social memory is on record as “significantly enhanced”. The “antagonism of scopolamine-stimulated locomotion” value in assay [1] is on record as “significantly antagonized”. In addition, the “Group mean of 60 min activity count totals” value was 3181 in assay [1] (M100907 0.03 + SCOP 0.75, intraperitoneal, n=6); 2378 in assay [1] (M100907 0.1 + SCOP 0.75, intraperitoneal, n=6); 2087 in assay [1] (M100907 0.3 + SCOP 0.75, intraperitoneal, n=6); 2231 in assay [1] (M100907 1 + SCOP 0.75, intraperitoneal, n=6).
As for `Cc1nc2n(c(=O)c1CCN1CCC(c3noc4cc(F)ccc34)CC1)CCCC2` [risperidone], the “antagonism of scopolamine-stimulated locomotion” value in assay [1] is recorded as “significantly antagonized”. Moreover, the “Group mean of 60 min activity count totals” value in assay [1] (risperidone 0.03 + SCOP 0.75, intraperitoneal, n=8) worked out at 4615; in assay [1] (risperidone 0.1 + SCOP 0.75, intraperitoneal, n=8), 4037; in assay [1] (risperidone 0.3 + SCOP 0.75, intraperitoneal, n=8), 1795; in assay [1] (risperidone 1 + SCOP 0.75, intraperitoneal, n=8), 772. The “activity level relative to baseline (vehicle) level” value in assay [1] (risperidone at the two higher doses + scopolamine) was “reduced activity below baseline level”.
